{
  "source": "patent US7491728B2",
  "about": "“Pyrimidinone compounds as calcilytics” (SmithKline Beecham Corp., priority 2004, dated 2009)",
  "assay": "Bolus i.v. injection in normal conscious rats: plasma PTH and ionized calcium levels",
  "type": "in vivo, male Sprague-Dawley rats",
  "experimental": "FIG. 1 is a graph which depicts the effect of bolus i.v. injection of the compound of Example 9 on plasma PTH levels in normal rats.\n5-Ethyl-3-[2-(2-fluoro-phenyl)-ethyl]-2-(2-hydroxy-phenyl)-6-methyl-3H-pyrimidin-4-one (1 or 3 μmol/kg) or vehicle was administered by intravenous injection over about 15 seconds to normal conscious male Sprague-Dawley rats with chronic indwelling arterial and venous catheters. Arterial blood samples were collected at 30 min and immediately before, and at 1, 5, 10, and 30 min after the start of the injection for measurement of the levels of parathyroid hormone (PTH) and ionized calcium (Ca^2+) in plasma. PTH was measured using a specific rat PTH (1-84) ELISA (Immutopics, San Clemente, Calif.). […] Plasma PTH levels had returned to pre-dose levels by 10 min after the injection (FIG. 1).",
  "data": [
    {"smiles": "CCc1c(C)nc(-c2ccccc2O)n(CCc2ccccc2F)c1=O", "note": "[Example 9, 5-Ethyl-3-[2-(2-fluoro-phenyl)-ethyl]-2-(2-hydroxy-phenyl)-6-methyl-3H-pyrimidin-4-one]", "values": [
      {"measurement": "effect on plasma PTH levels", "setting": "1 or 3 μmol/kg i.v. over about 15 seconds, normal conscious male Sprague-Dawley rats, rat PTH (1-84) ELISA, FIG. 1", "value": "rapid, but transient dose-related increase"},
      {"measurement": "time after injection at which plasma PTH levels were maximal", "setting": "1 or 3 μmol/kg i.v., rats", "value": 1, "unit": "min"},
      {"measurement": "time after injection by which plasma PTH levels had returned to pre-dose levels", "setting": "1 or 3 μmol/kg i.v., rats", "value": "≤ 10", "unit": "min"},
      {"measurement": "changes in plasma Ca2+ levels", "setting": "1 or 3 μmol/kg i.v., rats, samples up to 30 min after injection (not shown)", "value": "no consistent changes"}
    ]}
  ]
}
